This is an account of results in PMC9488896, “Hydroxamic Acid-Modified Peptide Library Provides Insights into the Molecular Basis for the Substrate Selectivity of HDAC Corepressor Complexes” (ACS Chemical Biology, 2022).

For assay [1], the target named is T1, HDAC1/MTA1(aa: 162–546)/RBBP4 core NuRD complex (HMR) (Homo sapiens, UniProt Q09028+Q13330+Q13547).
T1 construct: made in house; host or cells: HEK293F
The assay can be described thus: Boc-Lys HDAC inhibition assay. The class given is biochemical. To be noted: 50 nM complex, 100 μM Boc-(Ac)Lys-AMC, 37 °C 30 min, technical replicates N = 2. The procedure:
(§1) Inhibition assays with various peptide inhibitors were performed using a fluorescence-based assay. The inhibitor peptides were initially dissolved in 5% dimethyl sulfoxide (DMSO) at a stock concentration of 25 mM before being further diluted in the HDAC assay buffer (50 mM Tris/HCl, pH 7.5, 150 mM NaCl). Serial dilutions (1:3) of the inhibitor were prepared, starting at a concentration of 500 μM. HDAC complexes were diluted to a final concentration of 50 nM and incubated with the inhibitor for 20 min at rt. The Boc-(Ac)Lys-AMC substrate was added at a final concentration of 100 μM The final volume of the reaction was 50 μL. The reaction was incubated at 37 °C, 150 rpm, for 30 min, before a developer (50 mM Tris, pH 7.5, 100 mM NaCl, 10 mg/mL trypsin) was added. The reaction was incubated with the developer for 10 min before being measured (PerkinElmer, 2030 multilabel reader, VICTOR X5, excitation 335 nm, emission 460 nm). The absorbance of the buffer as the blank control was subtracted from the HDAC activity, and IC50 calculations were performed using the nonlinear regression log(inhibitor) vs response equation Y = bottom + (top – bottom)/(1+10^(X–Log IC50)) in Graphpad Prism 9.

The target of a further assay is T2, HMR complex (Homo sapiens, UniProt Q09028+Q13330+Q13547).
T2 construct: made in house; host or cells: HEK293F
The assay can be described thus: Fluorescence polarization binding assay. The following applies: 10 nM FTU-labeled peptide, increasing HMR, 30 min rt; one-site binding fit; technical replicates N = 2; read-out: KD of Fluorescein-labelled peptides against HMR. The procedure: We aimed first to validate the results of the activity assay with the hydroxamic acid-containing peptides in terms of binding kinetics. To this end, we designed and synthesized fluorescein-labeled analogues (FTU) of the key peptides identified from the inhibition assay: FTU-H3(6−12)K9Hd 17, FTU-H3(23–29)K27Hd 18, FTU-H4(8−14)K12Hd 19, and FTU-H4(12−18)K16Hd 20. […] These peptides were then tested in an FP assay to measure their binding affinity for the HMR complex (Figure 2D).
The fluorescence polarization assay was performed using 96-well black plates (Corning). FTU (10 nM)-labeled peptides (peptides 17–20) were incubated with increasing concentrations of HMR for 30 min at rt. The plate was shaken before being read on a Victor X5 Plate reader (Perkin Elmer). […] values were calculated using the nonlinear regression one-site binding equation Y = Bmax × X/(KD + X) using Graphpad Prism 9.
On the technique in general: Fluorescence polarisation rises when a labelled molecule tumbles more slowly, as on binding a larger partner.

A further assay concerns the target T3, MIER1 complex (Homo sapiens, UniProt Q13547+Q8N108).
T3 construct: made in house; host or cells: HEK293F
The assay can be described thus: Boc-Lys HDAC inhibition assay. The class given is biochemical. To be noted: HDAC complexes tables; 50 nM complex, 100 μM Boc-(Ac)Lys-AMC, 37 °C 30 min; technical replicates N = 2.
Source text: (§2) Finally, we directed our attention toward assessing how the results from the experiments with HMR would be common to the other known class I HDAC corepressor complexes. RERE, MIER1, CoREST, HMR, MiDAC, Sin3A, and SMRT were expressed and purified, and the concentrations were normalized based on the concentration of HDAC1 or HDAC3 (Figure 4A). We determined the potency of H3(23–29)K27Hd 12 and H4(12–18)K16Hd 16 against RERE, MIER1, CoREST, NuRD, MiDAC, Sin3A, and SMRT (Figure 4B). In addition, we repeated the H3(23–29)K27Hd alanine scan experiment for each of these complexes to assess whether or not the importance of Lys23 for maintaining potency against HMR was replicated across the other complexes (Figure 4C).
as §1

The next assay has as its target T4, MiDAC complex (Homo sapiens, UniProt Q13547+Q6PJG2+Q9H147).
T4 construct: made in house; host or cells: HEK293F
The assay can be described thus: Boc-Lys HDAC inhibition assay. To be noted: HDAC complexes tables; 50 nM complex, 100 μM Boc-(Ac)Lys-AMC, 37 °C 30 min; technical replicates N = 2. It counts as biochemical.
Source text: as §2, §1

In a further assay the target is T5, RERE complex (Homo sapiens, UniProt Q13547+Q9P2R6).
T5 construct: made in house; host or cells: HEK293F
The assay can be described thus: Boc-Lys HDAC inhibition assay. The class given is biochemical. The following applies: HDAC complexes tables; 50 nM complex, 100 μM Boc-(Ac)Lys-AMC, 37 °C 30 min; technical replicates N = 2.
Source text: as §2, §1

The next assay has as its target T6, SMRT complex (HDAC3) (Homo sapiens, UniProt O15379).
T6 construct: made in house; host or cells: HEK293F
In words: Boc-Lys HDAC inhibition assay. The following applies: HDAC complexes tables; 50 nM complex, 100 μM Boc-(Ac)Lys-AMC, 37 °C 30 min; technical replicates N = 2. The class given is biochemical.
Source text: as §2, §1

The target of another assay is T7, Sin3A complex (Homo sapiens, UniProt Q13547).
T7 construct: made in house; host or cells: HEK293F
In words: Boc-Lys HDAC inhibition assay. The class given is biochemical. The following applies: HDAC complexes tables; 50 nM complex, 100 μM Boc-(Ac)Lys-AMC, 37 °C 30 min; technical replicates N = 2.
Source text: as §2, §1

A further assay has as its target T8, CoREST complex (Homo sapiens, UniProt Q13547+Q9UKL0).
T8 construct: made in house; host or cells: HEK293F
In words: Boc-Lys HDAC inhibition assay. The class given is biochemical. The following applies: HDAC complexes tables; 50 nM complex, 100 μM Boc-(Ac)Lys-AMC, 37 °C 30 min; technical replicates N = 2.
Source text: as §2, §1

The mark [2] stands for this setting: alanine scan / H4K12Hd experiments, 20 min preincubation rt, read-out: IC50 of HMR against H3 K27Hd, H4 K16Hd and H4K12Hd peptides.

As usually defined, the IC50 is the midpoint of a concentration-inhibition curve. As a reminder, the Kd is the constant that tells how readily two partners part at equilibrium.

Read-outs that look alike come from different tables or passages of the source. Residues, ends and D or L forms follow the SMILES beside them.

T6 sequence (O15379 whole entry, species assumed, one chain of several): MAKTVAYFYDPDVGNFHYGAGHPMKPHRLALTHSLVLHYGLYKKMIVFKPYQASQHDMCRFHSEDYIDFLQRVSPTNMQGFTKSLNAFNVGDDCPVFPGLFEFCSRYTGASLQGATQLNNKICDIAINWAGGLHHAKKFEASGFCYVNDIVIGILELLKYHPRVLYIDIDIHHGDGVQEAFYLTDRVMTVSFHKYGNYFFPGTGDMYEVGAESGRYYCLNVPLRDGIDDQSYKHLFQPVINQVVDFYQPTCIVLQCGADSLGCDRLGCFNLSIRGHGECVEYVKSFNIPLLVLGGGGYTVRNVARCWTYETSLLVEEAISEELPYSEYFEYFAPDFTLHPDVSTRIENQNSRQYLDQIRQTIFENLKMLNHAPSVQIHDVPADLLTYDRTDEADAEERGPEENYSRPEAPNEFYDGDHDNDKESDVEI
T7 sequence (Q13547 whole entry): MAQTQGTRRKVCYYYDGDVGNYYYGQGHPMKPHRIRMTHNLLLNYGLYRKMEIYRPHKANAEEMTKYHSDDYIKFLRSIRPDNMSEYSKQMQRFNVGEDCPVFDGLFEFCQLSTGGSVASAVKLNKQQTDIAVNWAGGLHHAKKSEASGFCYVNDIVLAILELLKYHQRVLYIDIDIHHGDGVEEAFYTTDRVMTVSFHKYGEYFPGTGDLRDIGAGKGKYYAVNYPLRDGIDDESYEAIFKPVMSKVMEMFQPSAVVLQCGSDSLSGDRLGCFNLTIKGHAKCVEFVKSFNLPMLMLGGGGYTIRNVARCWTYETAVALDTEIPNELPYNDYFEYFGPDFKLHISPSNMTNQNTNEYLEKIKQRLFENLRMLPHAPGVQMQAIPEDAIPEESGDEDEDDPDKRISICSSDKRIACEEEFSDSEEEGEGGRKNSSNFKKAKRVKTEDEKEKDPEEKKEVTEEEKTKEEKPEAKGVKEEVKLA
T7 sequence (Q96ST3 whole entry partner): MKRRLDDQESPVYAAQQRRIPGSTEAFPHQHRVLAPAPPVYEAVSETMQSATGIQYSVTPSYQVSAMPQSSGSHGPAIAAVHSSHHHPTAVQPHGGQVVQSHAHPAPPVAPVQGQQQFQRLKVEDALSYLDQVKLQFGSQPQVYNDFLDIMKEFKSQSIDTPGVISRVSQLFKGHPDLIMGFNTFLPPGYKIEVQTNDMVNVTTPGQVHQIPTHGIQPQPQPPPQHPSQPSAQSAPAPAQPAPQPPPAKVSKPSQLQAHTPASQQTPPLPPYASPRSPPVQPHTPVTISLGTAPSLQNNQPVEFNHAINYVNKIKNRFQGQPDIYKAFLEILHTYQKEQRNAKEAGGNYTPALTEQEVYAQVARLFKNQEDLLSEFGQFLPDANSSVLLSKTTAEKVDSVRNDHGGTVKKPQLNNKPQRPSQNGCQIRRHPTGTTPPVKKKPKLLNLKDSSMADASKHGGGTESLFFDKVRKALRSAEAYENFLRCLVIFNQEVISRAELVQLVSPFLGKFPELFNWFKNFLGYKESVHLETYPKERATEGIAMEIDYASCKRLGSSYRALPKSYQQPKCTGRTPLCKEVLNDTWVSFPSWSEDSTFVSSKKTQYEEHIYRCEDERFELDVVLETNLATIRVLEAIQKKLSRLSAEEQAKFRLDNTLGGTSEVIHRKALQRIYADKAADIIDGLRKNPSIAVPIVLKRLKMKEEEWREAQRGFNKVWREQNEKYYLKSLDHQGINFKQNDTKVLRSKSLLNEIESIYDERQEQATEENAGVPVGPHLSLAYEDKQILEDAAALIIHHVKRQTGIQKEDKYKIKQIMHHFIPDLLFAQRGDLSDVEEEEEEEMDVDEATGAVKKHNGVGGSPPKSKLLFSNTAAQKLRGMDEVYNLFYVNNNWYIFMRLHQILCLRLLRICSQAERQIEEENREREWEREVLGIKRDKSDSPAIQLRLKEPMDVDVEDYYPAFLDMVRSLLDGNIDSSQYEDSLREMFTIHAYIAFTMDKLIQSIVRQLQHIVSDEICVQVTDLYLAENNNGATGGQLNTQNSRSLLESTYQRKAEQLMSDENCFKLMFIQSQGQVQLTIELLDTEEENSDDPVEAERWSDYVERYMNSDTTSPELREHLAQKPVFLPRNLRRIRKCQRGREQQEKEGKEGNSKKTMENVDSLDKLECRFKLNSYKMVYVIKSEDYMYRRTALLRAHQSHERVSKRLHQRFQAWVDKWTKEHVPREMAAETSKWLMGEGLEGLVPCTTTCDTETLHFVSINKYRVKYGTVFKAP
T7 sequence (Q09028 whole entry partner): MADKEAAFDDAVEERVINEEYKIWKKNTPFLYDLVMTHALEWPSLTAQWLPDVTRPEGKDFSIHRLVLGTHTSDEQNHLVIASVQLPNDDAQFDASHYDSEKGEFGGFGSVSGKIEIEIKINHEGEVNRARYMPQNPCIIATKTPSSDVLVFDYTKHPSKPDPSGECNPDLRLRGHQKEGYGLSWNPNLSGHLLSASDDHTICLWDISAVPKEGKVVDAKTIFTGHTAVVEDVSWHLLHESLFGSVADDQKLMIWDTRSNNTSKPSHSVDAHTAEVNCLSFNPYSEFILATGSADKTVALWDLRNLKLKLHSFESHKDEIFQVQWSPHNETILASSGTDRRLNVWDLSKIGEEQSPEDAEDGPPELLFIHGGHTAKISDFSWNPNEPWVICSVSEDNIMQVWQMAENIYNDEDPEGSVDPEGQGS
T7 sequence (Q9HAJ7 whole entry partner): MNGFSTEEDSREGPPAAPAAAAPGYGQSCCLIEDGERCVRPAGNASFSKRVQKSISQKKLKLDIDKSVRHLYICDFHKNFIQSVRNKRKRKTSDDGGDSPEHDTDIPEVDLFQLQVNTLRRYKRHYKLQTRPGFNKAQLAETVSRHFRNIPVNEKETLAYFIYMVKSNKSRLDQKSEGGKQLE
T7 sequence (Q9H7L9 whole entry partner): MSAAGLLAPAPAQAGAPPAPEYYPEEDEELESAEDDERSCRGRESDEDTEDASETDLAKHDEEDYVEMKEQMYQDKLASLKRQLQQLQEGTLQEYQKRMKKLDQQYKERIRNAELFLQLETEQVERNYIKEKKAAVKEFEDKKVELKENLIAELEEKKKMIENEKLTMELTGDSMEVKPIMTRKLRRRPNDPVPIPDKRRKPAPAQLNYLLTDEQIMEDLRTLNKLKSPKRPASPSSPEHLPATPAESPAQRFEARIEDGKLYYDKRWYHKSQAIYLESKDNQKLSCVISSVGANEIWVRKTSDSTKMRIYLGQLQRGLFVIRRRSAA
T1 sequence (Q13547 whole entry, species assumed): as the sequence (Q13547 whole entry) above
T1 sequence (Q13330 162-546 partner limits assumed, species assumed): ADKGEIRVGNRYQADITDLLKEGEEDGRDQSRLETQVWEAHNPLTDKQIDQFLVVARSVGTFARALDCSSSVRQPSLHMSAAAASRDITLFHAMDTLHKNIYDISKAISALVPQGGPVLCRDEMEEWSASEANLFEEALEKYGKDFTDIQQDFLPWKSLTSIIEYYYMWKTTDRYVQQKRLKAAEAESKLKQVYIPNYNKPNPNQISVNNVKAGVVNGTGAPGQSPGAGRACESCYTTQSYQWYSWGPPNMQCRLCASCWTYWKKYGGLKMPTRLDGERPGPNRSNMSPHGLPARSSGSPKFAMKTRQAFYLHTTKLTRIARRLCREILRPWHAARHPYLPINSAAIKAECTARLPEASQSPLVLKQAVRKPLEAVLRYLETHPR
T1 sequence (Q09028 whole entry partner, species assumed): as the sequence (Q09028 whole entry partner) above
T3 sequence (Q13547 whole entry): as the sequence (Q13547 whole entry) above
T3 sequence (Q8N108 whole entry partner): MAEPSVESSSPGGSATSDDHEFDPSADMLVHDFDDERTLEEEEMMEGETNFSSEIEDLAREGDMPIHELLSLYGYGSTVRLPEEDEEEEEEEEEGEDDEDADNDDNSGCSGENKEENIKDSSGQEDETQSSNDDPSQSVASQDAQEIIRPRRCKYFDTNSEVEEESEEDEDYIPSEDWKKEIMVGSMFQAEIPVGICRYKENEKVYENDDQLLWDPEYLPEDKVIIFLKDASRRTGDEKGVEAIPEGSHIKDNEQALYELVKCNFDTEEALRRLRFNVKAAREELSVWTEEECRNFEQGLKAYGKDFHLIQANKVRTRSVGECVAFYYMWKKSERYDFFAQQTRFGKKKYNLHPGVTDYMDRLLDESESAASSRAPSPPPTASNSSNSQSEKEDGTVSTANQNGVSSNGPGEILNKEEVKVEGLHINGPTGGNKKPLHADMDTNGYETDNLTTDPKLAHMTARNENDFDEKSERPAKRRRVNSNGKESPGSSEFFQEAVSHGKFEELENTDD
T4 sequence (Q13547 whole entry): as the sequence (Q13547 whole entry) above
T4 sequence (Q6PJG2 628-887 partner limits assumed): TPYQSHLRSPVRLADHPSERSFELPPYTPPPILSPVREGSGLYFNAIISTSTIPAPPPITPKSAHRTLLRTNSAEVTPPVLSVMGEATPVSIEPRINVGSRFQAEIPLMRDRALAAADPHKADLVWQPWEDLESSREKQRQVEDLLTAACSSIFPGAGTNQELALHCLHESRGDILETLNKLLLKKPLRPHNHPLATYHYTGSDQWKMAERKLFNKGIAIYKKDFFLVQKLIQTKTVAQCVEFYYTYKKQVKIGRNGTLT
T4 sequence (Q9H147 whole entry partner): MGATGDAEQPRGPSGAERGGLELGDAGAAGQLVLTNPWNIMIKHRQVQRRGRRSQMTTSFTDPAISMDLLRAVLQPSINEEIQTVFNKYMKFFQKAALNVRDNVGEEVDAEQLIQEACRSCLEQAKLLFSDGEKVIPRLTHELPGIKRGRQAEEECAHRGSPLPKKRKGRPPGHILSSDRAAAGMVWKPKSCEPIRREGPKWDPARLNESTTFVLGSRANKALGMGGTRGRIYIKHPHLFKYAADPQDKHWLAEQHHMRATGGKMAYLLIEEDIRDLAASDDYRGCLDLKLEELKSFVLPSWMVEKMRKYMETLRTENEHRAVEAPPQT
T2 sequence (Q13547 whole entry, species assumed): as the sequence (Q13547 whole entry) above
T2 sequence (Q13330 162-546 partner limits assumed, species assumed): as the sequence (Q13330 162-546 partner limits assumed, species assumed) above
T2 sequence (Q09028 whole entry partner, species assumed): as the sequence (Q09028 whole entry partner) above

On to `CC(=O)N[C@@H](CCCCN)C(=O)N[C@@H](C)C(=O)N[C@@H](C)C(=O)N[C@@H](CCCNC(=N)N)C(=O)N[C@@H](CCCCCC(=O)NO)C(=O)N[C@@H](CO)C(=O)N[C@@H](C)C(N)=O` [compound 12, H3(23–29)K27Hd] (HELM PEPTIDE1{[ac].K.A.A.R.[O=C([C@H](CCCCCC(=O)[*:3])N[*:1])[*:2]].S.A.[am]}|CHEM1{[ON[*:1]]}$PEPTIDE1,CHEM1,6:R3-1:R1$$$V2.0), for which the IC50 was found to be 50 nM in assay [1] (HDAC complexes tables, read-out: IC50, HMR (NuRD)); 133 nM in assay [1] (setting [2]); 134 nM in assay [1] (inhibitor library experiment, 20 min preincubation rt, fluorescence, read-out: IC50 of HMR against histone peptide library); 106 nM on MIER1 complex; 151 nM at MiDAC complex; 209 nM against RERE complex. For the same compound, the half-inhibitory concentration (IC50) came to 128 nM against SMRT complex (HDAC3) and 145 nM against Sin3A complex. Moreover, the Kd at HMR complex was found to be 60 nM.
`CC(=O)N[C@@H](C)C(=O)N[C@@H](C)C(=O)N[C@@H](C)C(=O)N[C@@H](CCCNC(=N)N)C(=O)N[C@@H](CCCCCC(=O)NO)C(=O)N[C@@H](CO)C(=O)N[C@@H](C)C(N)=O` [compound 21, H3(23–29)K23A K27Hd] (HELM PEPTIDE1{[ac].A.A.A.R.[O=C([C@H](CCCCCC(=O)[*:3])N[*:1])[*:2]].S.A.[am]}|CHEM1{[ON[*:1]]}$PEPTIDE1,CHEM1,6:R3-1:R1$$$V2.0): the IC50 in assay [1] (setting [2]) was determined as 26200 nM; against CoREST complex, 18300 nM; at MIER1 complex, 20100 nM; on MiDAC complex it was 18100 nM; against RERE complex it was 28700 nM; against SMRT complex (HDAC3), 17400 nM. This compound yielded an IC50 at Sin3A complex of 71600 nM.
For `CC(=O)N[C@@H](CCCCN)C(=O)N[C@@H](C)C(=O)N[C@@H](C)C(=O)N[C@@H](CCCNC(=N)N)C(=O)N[C@@H](CCCCCC(=O)NO)C(=O)N[C@@H](C)C(=O)N[C@@H](C)C(N)=O` [compound 23, H3 (23-29) K27Hd S28A] (HELM PEPTIDE1{[ac].K.A.A.R.[O=C([C@H](CCCCCC(=O)[*:3])N[*:1])[*:2]].A.A.[am]}|CHEM1{[ON[*:1]]}$PEPTIDE1,CHEM1,6:R3-1:R1$$$V2.0), the IC50 in assay [1] (setting [2]) was 308 nM; against CoREST complex, 234 nM; on MIER1 complex, 342 nM; at MiDAC complex, 480 nM; at RERE complex, 408 nM; at SMRT complex (HDAC3), 379 nM. The IC50 against Sin3A complex came to 272 nM.
As to `CC(=O)N[C@@H](CCCCN)C(=O)NCC(=O)N[C@@H](CC(C)C)C(=O)NCC(=O)N[C@@H](CCCCCC(=O)NO)C(=O)NCC(=O)NCC(N)=O` [compound 27, H4(8–14)K12Hd] (HELM PEPTIDE1{[ac].K.G.L.G.[O=C([C@H](CCCCCC(=O)[*:3])N[*:1])[*:2]].G.G.[am]}|CHEM1{[ON[*:1]]}$PEPTIDE1,CHEM1,6:R3-1:R1$$$V2.0), the Kd on HMR complex turned out to be 288 nM.
